Test results taken from US9492423B2, “Formulations of histone deacetylase inhibitor in combination with bendamustine and uses thereof” (PHARMACYCLICS LLC, priority 2011, dated 2016).

Legend:
[1] = Phase 1 trial of oral capsule Compound 1, HCl: plasma pharmacokinetics; type: in vivo; conditions: human, 30 mg/m^2 dose of capsule formulation of Example 2, solid tumor cancer patients, mean±SE, read-out: AUC0-4h for plasma concentrations
Description: (§1) This is a Phase 1 dose-escalation study of the safety, pharmacokinetics, and pharmacodynamics of Compound 1, HCl administered orally in patients with advanced cancer.
(§2) In the Phase 1 dose escalation study, up to 7 cohorts will receive Compound 1, HCl orally at doses starting at 30 mg/m^2, approximately 4-6 hours apart, up to 90 mg/m^2, 2 or 3 times a day according to 3 different dosing schedules within 28 day cycle (5 days of dosing followed by 2 days of no dosing; 5 days of dosing followed by 9 days of no dosing; 7 days of dosing followed by 7 days of no dosing) until the maximum tolerated dose is reached.
The following pharmacokinetic information was determined for patients that received a […] dose of the capsule formulation of Example 2. Solid tumor cancer patients received a […] dose of the capsule formulation of Example 2. Blood samples that were collected for up to 24 hours post-dosing were analyzed for pharmacokinetic evaluations. Plasma was harvested by centrifugation and stored at approximately −70° C. until analysis. Concentrations of Compound 1 were determined in plasma using HPLC gradient system (Hewlett Packard model 1100) was configured with Sciex API 3000 and a reversed phase column (Phenomenex, Luna C18, 3.0 μm, 50×2 mm i.d.). The mobile phase gradient consisted of 0.2% formic acid in water (A) and 0.2% formic acid in methanol (B). […]

[2] = Clinical PK of Compound 1 in solution form, single oral dose and 2-hour IV infusion doses; conditions: human, in vivo, humans
Description: In clinical trials involving humans with cancer, Compound 1 in solution form was administered at 2 mg/kg as a single oral dose and as multiple 2-hour IV infusion doses.

[3] = Phase 1 trial of oral capsule Compound 1, HCl: safety, tolerability, pharmacodynamics; type: in vivo
Description: as §1
This study seeks to determine the highest dose of Compound 1, HCl that can be taken without causing serious side effects in patients with advanced cancer. The study will look at safety of the study drug (Compound 1, HCl) and whether the treatment schedule is tolerated by patients.
as §2
Patients should satisfy the following criteria: At least 18 years of age; histologically confirmed, measurable solid tumor, non-Hodgkin's lymphoma, Hodgkin's disease, chronic lymphocytic leukemia, or multiple myeloma that has relapsed after standard therapy or for which no standard therapy exists; ability to swallow oral capsules without difficulty; estimated life expectancy>12 weeks; ECOG performance status≦2; Creatinine≦1.5×institutional upper limit of normal (ULN); Total bilirubin≦1.5×institutional ULN (unless elevated from documented Gilbert's syndrome); AST and ALT≦2.5×institutional ULN (≦5×institutional ULN in the presence of liver metastases); Platelet count≧100,000/μL; ANC≧1500/μL; Hgb≧9.0 g/dL; Patients with previously treated, stable, asymptomatic brain metastases who are not on corticosteroids are eligible; Willing and able to sign a written informed consent.

[4] = system: Jurkat (leukemia) and HCT-116 (colon tumor); assay: In vitro dose scheduling studies, apoptosis by FACS (annexinV-FITC/PI); type: cell-based, human
Description: Pharmacokinetic data (pk) data from human patients was used to model various dose regimens using human cell lines: Jurkat (leukemia) and HCT-116 (colon tumor). The human cell lines were treated with or without a HDAC inhibitor (e.g. Compound 1). Cells were cultured, treated according to different regimens and concentrations to model the corresponding dosing regimen (continuous low dose: 0.2 μM; intravenous (IV): 2 μM 3 hours+0.3 μM 4 hours; oral BID: 0.4 μM 4 hours×2, 4 hours apart; oral consecutive BID: 0.4 μM 8 hours; oral consecutive TID: 0.266 μM 12 hours), then washed out to mimic the human in vivo PK.
Cell viability was examined by an analysis of apoptosis using fluorescence activated cell sorting (FACS) after staining with annexinV-FITC and propidium iodide (PI). In brief, after treatment, 1×10^6 cells were washed with phosphate buffered saline (PBS) and then labeled with annexinV-FITC/PI in the binding buffer according to manufacturer's protocol. Fluorescent signals of FITC and PI were detected at 518 nm and 620 nm, respectively, on a Beckman Coulter FACS instrument (Fullerton, Calif.). The data were analyzed with Flow Jo software (Tree Star, Ashland, Oreg.).

RAD51 [5] = assay: Western blot of DNA repair proteins in multiple myeloma cell lines; type: cell-based; conditions: FIG. 6A
Description: RAD51 represents an essential component of homologous recombination (HR), one of the two major DNA double-strand break (DSB) repair pathways in cells; the second pathway, non-homologous end joining (NHEJ), represented here by two of its components Ku-70 and DNA-PKcs, is not affected by these treatments. […] As explained supra, the synergistic anti-multiple myeloma activity of the bendamustine-Compound 1 combination could be due to a reduction in RAD51 levels caused by the HDAC inhibitor (i.e., Compound 1).

H929 (Multiple Myeloma) = assay: Tumor growth inhibition study, H929 bearing female SCID mice; type: in vivo; conditions: PCI-24781 12 mg/kg BID IP 5 d/wk; bendamustine 5.0 mg/kg qd IP 2 d/wk; FIG. 7
Description: Mice inoculated subcutaneously in the right hind flank with H929 MM cells at a density of 1×10^7 cells in a volume of 100 μL/mouse 4 groups of animals (n=8/group) received vehicle (BID, IP, 5 d/wk), PCI-24781 alone (12 mg/kg BID, IP, 5 d/wk), bendamustine alone 5.0 mg/kg (qd, IP, 2 d/wk Tu, Th) or the combination. Body weights and tumor measurements were collected a minimum of 2 times each week for all animals. Blood and tumor samples were collected at study termination for pharmacodynamic evaluations.

[6] = system: Neuroblastoma cell lines and patient-derived primary neuroblastoma cultures; assay: Neuroblastoma cell viability, calcein AM assay; type: cell-based; conditions: 48 hours, viability by calcein AM
Description: Neuroblastoma cell lines and patient-derived primary neuroblastoma cultures were treated with bortezomib, Compound 1 alone or a combination of both agents for 48 hours. Cells were also treated with HDAC inhibitors vorinostat, sodium butyrate, and valproic acid and viability was assessed by calcein AM assays. mRNA from treated cells was evaluated at 6 and 24 hours using U133+ mRNA expression arrays and Ingenuity analysis. Dichlorofluorescein (DCF) was used to measure reactive oxygen species (ROS). Cell viability assays were repeated in the presence of N-acetylcysteine (NAC). Western blot evaluated caspase-3 and PARP cleavage. Nude mice were injected with 10^7 SMS-KCNR cells subcutaneously and treated with daily doses of 0.5 mg/kg bortezomib, 12.5 mg/kg Compound 1, or a combination of the two agents. Tumors were measured and imaged twice per week.

RAD51 [7] = assay: Jurkat cells, pretreatment and bendamustine-induced RAD51 upregulation; type: cell-based, human; conditions: Jurkat cells pre-treated one day with 0.2 uM Compound 1, then 20 uM bendamustine for 1 day, FIG. 9
Description: Cells were pre-treated one day is advance with 0.2 uM HDAC inhibitor (i.e., Compound 1), then 20 uM bendamustine was added for 1 day.

| Compound | AUC(0-t) [1] | bioavailability ([2]; 2 mg/kg, administered as immediate release capsules or an oral solution) | bioavailability ([2]; 2 mg/kg solution, from oral and IV AUC0-∞) | average grade of thrombocytopenia, TID versus BID consecutive dosing ([3]; daily exposure range of 0.63 to 2.15 μM·h) | therapeutic effect ([3]; immediate release capsule, 2 or 3 consecutive doses 4 to 6 hours apart on days of dosing) | incidence of Grade 4 thrombocytopenia (platelet count <25,000 per mm^2) ([3]; solid tumor and lymphoma patients, cycles of 7 days oral dosing followed by 7 days without dosing) | efficacy of modelled oral tid dosing versus bid dosing ([4]; 0.266 μM 12 hours versus 0.4 μM 8 hours) | efficacy of modelled oral bid dosing given consecutively (4 hours apart) versus with a break in between ([4]; 0.4 μM 8 hours versus 0.4 μM 4 hours×2) | efficacy (tumor cell death) of modelled dose schedule ([4]; continuous exposure for at least 8 hours) | NHEJ components Ku-70 and DNA-PKcs (RAD51 [5]) | RAD51 expression (RAD51 [5]) | tumor growth inhibition (H929 (Multiple Myeloma)) | IC50 [6] | bendamustine-induced RAD51 upregulation (RAD51 [7]) |
| --- | --- | --- | --- | --- | --- | --- | --- | --- | --- | --- | --- | --- | --- | --- |
| CN(C)Cc1c(C(=O)NCCOc2ccc(C(=O)NO)cc2)oc2ccccc12 [Compound 1, N-hydroxy-4-{2-[3-(N,N-dimethylaminomethyl)benzofuran-2-ylcarbonylamino]ethoxy}-benzamide] | 0.272 ± 0.051 µM·h | ~27% | ~27% | higher average grade of thrombocytopenia | therapeutic effect of Compound 1 was achieved | limited incidence of Grade 4 thrombocytopenia | better | more efficacious | good efficacy | not affected | downregulation of RAD51 | 73% | < 0.2 µM | suppressed bendamustine-induced RAD51 upregulation |
| CC(C)C[C@H](NC(=O)[C@H](Cc1ccccc1)NC(=O)c1cnccn1)B(O)O [bortezomib, reference compound] | – | – | – | – | – | – | – | – | – | – | – | – | < 0.05 µM | – |
| Cn1c(CCCC(=O)O)nc2cc(N(CCCl)CCCl)ccc21 [bendamustine] | – | – | – | – | – | – | – | – | – | – | – | 79% | – | – |
